# Read-outs that look alike come from different tables or passages of the source.
# Legend:
# CB1 receptor [1] = target: T1, CB1 receptor (Homo sapiens, UniProt P21554); set-up: method as in PMID 40180269; conditions: SPR affinity assessment, earlier study, cited from earlier work
# mice [2] = tested on: mice; set-up: method as in PMID 40180269; conditions: cited from earlier work
# mice [3] = tested on: mice; set-up: method as in PMID 40180269; conditions: hypothermia, motor suppression, catalepsy; ranking among 4F-ABUTINACA, JWH-018, SDB-005; cited from earlier work
# mice [4] = tested on: mice; set-up: method as in PMID 40180269; conditions: ranking among 4F-ABUTINACA, JWH-018, SDB-005; cited from earlier work
# CB1 receptor [5] = target: T1, CB1 receptor; test: Surface Plasmon Resonance (SPR) affinity assay, CB1 protein immobilized on CM5 chip (Biacore T200); type: binding
# Experimental: The ligand immobilization was conducted in four steps: ligand pre-enrichment, activation, coupling, and blocking. To prepare the 1.05× PBS-P buffer, it was diluted from the 10× PBS-P buffer. For ligand pre-enrichment, the Biacore T200 (cytiva, Marlborough, MA, USA; manufactured in Sweden) pre-enrichment program was employed. The 300 μg/mL protein stock solution was diluted to a final concentration of 15 μg/mL using 10 mM sodium acetate solutions at pH 4.0, 4.5, 5.0, and 5.5, respectively. The ligand was flowed over the surface of a blank chip at a flow rate of 30 μL/min to assess the effect of electrostatic adsorption. Based on the response difference and slope, the optimal coupling pH of 4.0 was selected. For activation, the Biacore T200 manual coupling program was used. The carboxylic acid groups on the chip surface were activated by injecting a 1:1 mixture of EDC and NHS from the amino-coupling kit at a flow rate of 10 μL/min for 900 s. During the coupling step, the 300 μg/mL protein stock solution was diluted 10-fold to 30 μg/mL using sodium acetate at pH 4.0. […]
# For solvent correction, eight solvent correction points were established, with correction cycles performed at the beginning, end, and every 30 samples during the experiment. […] The system continuously monitored and recorded the sensorgram of the interaction between the sample and the CB1 protein in real time. […]
# CB1 receptor [6] = target: T1, CB1 receptor; set-up: method as in PMID 26686391; conditions: read-out: GTPγS Binding Assay Ki Value; Table 2; cited from earlier work
# CB1 receptor [7] = target: T1, CB1 receptor; set-up: method as in PMID 31021521; conditions: read-out: βarr2 Recruitment Assay EC50 Values; HEK293T cell lines; Table 3; cited from earlier work
# T1 sequence (P21554 whole entry): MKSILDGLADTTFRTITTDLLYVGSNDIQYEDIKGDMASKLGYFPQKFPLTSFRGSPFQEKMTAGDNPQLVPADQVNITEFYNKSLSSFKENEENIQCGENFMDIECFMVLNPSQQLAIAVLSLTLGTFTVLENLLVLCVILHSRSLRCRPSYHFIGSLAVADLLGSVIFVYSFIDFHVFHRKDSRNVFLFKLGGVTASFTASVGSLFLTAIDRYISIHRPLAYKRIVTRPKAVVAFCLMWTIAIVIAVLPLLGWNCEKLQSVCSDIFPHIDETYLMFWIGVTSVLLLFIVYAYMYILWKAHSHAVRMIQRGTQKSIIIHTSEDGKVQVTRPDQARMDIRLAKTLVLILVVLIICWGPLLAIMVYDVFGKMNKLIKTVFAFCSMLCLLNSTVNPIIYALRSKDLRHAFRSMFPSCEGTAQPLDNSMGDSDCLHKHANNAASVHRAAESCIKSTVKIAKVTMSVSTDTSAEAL
smiles,measurement,setting,value
O=C(NC12CC3CC(CC(C3)C1)C2)c1nn(CCCCF)c2ccccc12 [4F-ABUTINACA],Kd,CB1 receptor [1]; read-out: KD,20100 nM
same,LD50 (acute toxicity),mice [2],11.62 mg/kg
same,effects in the tetrad test,mice [3],most pronounced effects
same,reward potential in the CPP test,mice [4],strongest reward potential
O=C(NC12CC3CC(CC(C3)C1)C2)c1nn(CCCCCF)c2ccccc12 [5F-AKB-48],reduction in the KD value on substitution of parent core from indole to indazole,CB1 receptor [5]; 5F-AKB-48 versus STS-135,50%
same,Ki,CB1 receptor [6],0.87 nM
CC(C)C(NC(=O)c1nn(CC2CCCCC2)c2ccccc12)C(N)=O (centres unmarked) [AB-CHMINACA],EC50,CB1 receptor [7],0.34 nM
CCCCCn1cc(C(=O)c2cccc3ccccc23)c2ccccc21 [JWH-018],Ki,CB1 receptor [6],3.38 nM
same,EC50,CB1 receptor [7],36.8 nM
same,Kd,CB1 receptor [1],39300 nM
same,effects in the tetrad test,mice [3],intermediate
same,reward potential in the CPP test,mice [4],intermediate
C=CCCCn1nc(C(=O)NC(C(=O)OC)C(C)(C)C)c2ccccc21 (centres unmarked) [MDMB-4en-PINACA],affinity relative to AMB-4en-PICA,"CB1 receptor [5]; ratio of KD values, MDMB-4en-PINACA versus AMB-4en-PICA",six-fold higher affinity
CCCCCn1nc(C(=O)Oc2cccc3ccccc23)c2ccccc21 [SDB-005],Kd,CB1 receptor [1]; read-out: KD,53000 nM
same,effects in the tetrad test,mice [3],weaker
same,reward potential in the CPP test,mice [4],weaker
O=C(NC12CC3CC(CC(C3)C1)C2)c1cn(CCCCCF)c2ccccc12 [STS-135],Ki,CB1 receptor [6],1.93 nM
